Experimental data as given in patent US7868046B2, “(2R)-2-[(4-sulfonyl) aminophenyl] propanamides and pharmaceutical compositions containing them” (Dompe' Pha.r.ma S.p.A., priority 2006, dated 2011).

Key:
human PMNs [1] = experiment: CXCL8 induced human PMN chemotaxis inhibition; type: cell-based; conditions: hPMN chemotaxis, compound at 10^−7 M; for inhibition at 0.1 µM: Homo sapiens
Description: (§1) The compounds of the invention of formula (I) were evaluated in vitro for their ability to inhibit chemotaxis of polymorphonucleate leukocytes (hereinafter referred to as PMNs) and monocytes induced by the fractions of IL-8 and GRO-α. For this purpose, in order to isolate the PMNs from heparinized human blood, taken from healthy adult volunteers, mononucleates were removed by means of sedimentation on dextran (according to the procedure disclosed by W. J. Ming et al., J. Immunol., 138, 1469, 1987) and red blood cells by a hypotonic solution. The cell vitality was calculated by exclusion with Trypan blue, whilst the ratio of the circulating polymorphonucleates was estimated on the cytocentrifugate after staining with Diff Quick.
In the CXCL8 induced chemotaxis assay human recombinant CXCL8 (Pepro Tech) was used as stimulating agents in the chemotaxis experiments: the lyophilized protein was dissolved in a volume of HBSS containing 0.2% bovin serum albumin (BSA) so thus to obtain a stock solution having a concentration of 10^−5 M to be diluted in HBSS to a concentration of 10^−8 M, for the chemotaxis assays.
(§2) In the chemotaxis experiments, the PMNs were incubated with the compounds of the invention of formula (I) for 15′ at 37° C. in an atmosphere containing 5% CO2.
(§3) During the chemotaxis assay [W. Falket et al., J. Immunol. Methods, 33, 239, 1980] PVP-free filters with a porosity of 5 μm and microchambers suitable for replication were used.
(§4) The compounds of the invention in formula (I) were evaluated at a concentration ranging between 10^−6 and 10^−10 M; for this purpose they were added, at the same concentration, both to the lower pores and the upper pores of the microchamber. Evaluation of the ability of the compounds of the invention of formula (I) to inhibit the chemotaxis of human monocytes was carried out according to a disclosed method [Van Damme J. et al., Eur. J. Immunol., 19, 2367, 1989].

human PMNs [2] = experiment: CXCL1 (GRO-α) induced human PMN chemotaxis inhibition; type: cell-based; conditions: hPMN chemotaxis, compound at 10^−8 M; for inhibition at 0.01 µM: Homo sapiens
Description: as §1
GRO-α induced chemotaxis inhibition was evaluated in an analogous assay.
as §2, §3, §4

| Compound | melting point [°C] | inhibition at 0.1 µM (human PMNs [1]) [%] | inhibition at 0.01 µM (human PMNs [2]) [%] | CXCL8 (% inhibition at 10^−7 M) (human PMNs [1]) [%] | CXCL1 (% inhibition at 10^−8 M) (human PMNs [2]) [%] |
| --- | --- | --- | --- | --- | --- |
| CC(C)S(=O)(=O)Nc1ccc([C@@H](C)C(N)=O)cc1 [Compound 1, (2R)-2-{4-[(Isopropylsulfonyl]amino}phenyl)propanamide] | 125 to 127 | 7 ± 18 | 67 ± 7 | – | – |
| C[C@@H](C(N)=O)c1ccc(NS(=O)(=O)c2ccccc2Cl)cc1 [Compound 2, (2R)-2-{4-{[(2-chlorophenyl)sulfonyl]amino}phenyl)propanamide] | – | 19 ± 5 | 41 ± 7 | – | – |
| C[C@@H](C(N)=O)c1ccc(NS(=O)(=O)c2c(Cl)cccc2Cl)cc1 [Compound 3, (2R)-2-{4-{[(2,6-dichlorophenyl)sulfonyl]amino}phenyl)propanamide] | – | 14 ± 5 | 39 ± 10 | – | – |
| C[C@@H](C(N)=O)c1ccc(NS(C)(=O)=O)cc1 [Compound 4, (2R)-2-{4-[(methylsulfonyl)amino]phenyl}propanamide] | – | 10 ± 7 | 75 ± 7 | – | – |
| C[C@@H](C(N)=O)c1ccc(NS(=O)(=O)c2ccccc2)cc1 [Compound 5, (2R)-2-{4-[(phenylsulfonyl)amino]phenyl}propanamide] | 152 to 153 | 15 ± 10 | 44 ± 9 | – | – |
| Cc1ccc(S(=O)(=O)Nc2ccc([C@@H](C)C(N)=O)cc2)cc1 [Compound 6, (2R)-2-{4-{[(4-methylphenyl)sulfonyl]amino}phenyl)propanamide] | 138 to 140 | 12 ± 10 | 65 ± 4 | – | – |
| COc1ccc(S(=O)(=O)Nc2ccc([C@@H](C)C(N)=O)cc2)cc1 [Compound 7, (2R)-2-{4-{[(4-methoxylphenyl)sulfonyl]amino}phenyl)propanamide] | 118 to 120 | 9 ± 7 | 71 ± 11 | – | – |
| C[C@@H](C(N)=O)c1ccc(NS(=O)(=O)Cc2ccccc2)cc1 [Compound 8, (2R)-2-(4-[(benzylsulfonyl]amino}phenyl)propanamide] | 68 to 70 | 14 ± 9 | 58 ± 6 | – | – |
| C[C@@H](C(N)=O)c1ccc(NS(=O)(=O)c2ccc(Cl)cc2)cc1 [Compound 9, (2R)-2-(4-{[(4-chlorophenyl)sulfonyl]amino}phenyl)propanamide] | 150 to 153 | 20 ± 4 | 53 ± 12 | – | – |
| C[C@@H](C(N)=O)c1ccc(NS(=O)(=O)c2ccc(C(F)(F)F)cc2)cc1 [Compound 10, (2R)-2-(4-{[(4-(trifluoromethyl)phenyl]sulfonyl}amino)phenyl]propanamide] | 178 to 180 | 15 ± 7 | 69 ± 5 | – | – |
| C[C@@H](C(N)=O)c1ccc(NS(=O)(=O)c2cccs2)cc1 [Compound 11, (2R)-2-{4-[(thien-2ylsulfonyl)amino]phenyl}propanamide] | 58 to 60 | 17 ± 4 | 50 ± 2 | – | – |
| C[C@@H](C(N)=O)c1ccc(NS(=O)(=O)C2CCCC2)cc1 [Compound 12, (2R)-2-{4-[(cyclopentylsulfonyl)amino]phenyl}propanamide] | – | 21 ± 10 | 67 ± 7 | – | – |
| C[C@@H](C(N)=O)c1ccc(NS(=O)(=O)C(F)(F)F)cc1 [Compound 13, (2R)-2-(4-{[(trifluoromethyl)sulfonyl]amino}phenyl)propanamide] | – | 24 ± 7 | 75 ± 11 | – | – |
| CNC(=O)[C@H](C)c1ccc(NS(=O)(=O)C(C)C)cc1 [Compound 14, (2R)-2-{4-[(isopropylsulfonyl]amino}phenyl)-N-methylpropanamide] | – | 8 ± 9 | 64 ± 8 | – | – |
| CC(C)S(=O)(=O)Nc1ccc([C@@H](C)C(=O)N[C@@H](C)C(N)=O)cc1 [Compound 15, (2R)—N-[(1S)-2-amino-1-methyl-2-oxoethyl]-2-{4-[(isopropylsulfonyl]amino}phenyl) propanamide] | – | – | – | 10 ± 8 | 58 ± 2 |
| CC(C)S(=O)(=O)Nc1ccc([C@@H](C)C(=O)Nc2nc(C(F)(F)F)cs2)cc1 [Compound 16, (2R)-2-{4-[(isopropylsulfonyl]amino}phenyl)-N-[4-(trifluoromethyl)-1,3-thiazol-2-yl]propanamide] | – | 11 ± 7 | 49 ± 10 | – | – |
| C[C@@H](C(=O)Nc1nc(C(F)(F)F)cs1)c1ccc(NS(=O)(=O)c2ccccc2Cl)cc1 [Compound 17, (2R)-2-{4-{[(2-chlorophenyl)sulfonyl]amino}phenyl)-N-[4-(trifluoromethyl)-1,3-thiazol-2-yl]propanamide] | – | 14 ± 11 | 40 ± 12 | – | – |
| C[C@@H](C(=O)NCCOCCO)c1ccc(NS(=O)(=O)c2ccccc2Cl)cc1 [Compound 18, (2R)-2-{4-{[(2-chlorophenyl)sulfonyl]amino}phenyl)-N-[2-(2-hydroxyethoxy)ethyl]propanamide] | – | 6 ± 7 | 59 ± 5 | – | – |
| C[C@@H](C(=O)NC1CC1)c1ccc(NS(=O)(=O)c2ccccc2Cl)cc1 [Compound 19, (2R)-2-{4-{[(2-chlorophenyl)sulfonyl]amino}phenyl)-N-cyclopropylpropanamide] | – | 19 ± 4 | 60 ± 8 | – | – |
